Test results from US8541581B2, “Inhibitors of fatty acid amide hydrolase” (Infinity Pharmaceuticals, Inc., priority 2009, dated 2013).

Target: T1, human FAAH (Homo sapiens, UniProt O00519)
T1 construct: host or cells: COS-7 cells, transient transfection; 13,000 g membrane fraction solubilized in 1% Triton X-100
T1 sequence (O00519 1-579): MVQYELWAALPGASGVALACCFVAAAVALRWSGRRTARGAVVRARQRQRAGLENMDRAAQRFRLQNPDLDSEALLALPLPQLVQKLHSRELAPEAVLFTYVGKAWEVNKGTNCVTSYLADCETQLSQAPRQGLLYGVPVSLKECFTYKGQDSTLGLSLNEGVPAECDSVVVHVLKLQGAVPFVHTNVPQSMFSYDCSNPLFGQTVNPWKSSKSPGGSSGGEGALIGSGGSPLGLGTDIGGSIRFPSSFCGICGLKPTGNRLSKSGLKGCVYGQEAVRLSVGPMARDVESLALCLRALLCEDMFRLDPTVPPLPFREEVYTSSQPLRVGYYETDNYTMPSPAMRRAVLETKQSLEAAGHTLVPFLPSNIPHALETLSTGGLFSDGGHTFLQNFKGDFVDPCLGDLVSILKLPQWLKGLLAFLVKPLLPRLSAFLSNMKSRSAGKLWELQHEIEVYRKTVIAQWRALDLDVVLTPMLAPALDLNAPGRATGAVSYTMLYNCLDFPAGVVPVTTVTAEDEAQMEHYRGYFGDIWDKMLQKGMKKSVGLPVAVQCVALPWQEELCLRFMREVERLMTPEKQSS
Test: Human FAAH fluorescence-based inhibition assay (AMC Arachidonoyl Amide hydrolysis)
Format: biochemical
Details: human FAAH from transfected COS-7 cells; 20 μM AMC-Arachidonoyl substrate; 30 min preincubation, 4 hours at room temperature
Experimental: Exemplary compounds are set forth in the Examples provided below. Compounds were assayed as inhibitors of human FAAH using the method described in detail in Example 19.
The following assays can be used to determine the inhibition of FAAH: (1) a fluorescence-based assay (Manjunath et al., Analytical Biochemistry (2005) 343:143-151); and (2) a microsome-based fluorescent assay (Wang et al., Biomolecular Screening (2006) 1-9).
COS-7 cells were split the day before, 1:5 into 150 mm×25 mm cell culture dishes (Corning Inc., Cat. No. 430599). Transient transfection took place at 30-40% confluency according to FuGENE 6 Transfection Reagent (Roche, Cat. No. 11814 443 001).
The FuGENE transfection 6 reagent (45 uL) was added to 1410 μL of media (DMEM, serum free without pen/strep) in a 15 mL conical tube and incubated at room temp for 5 minutes, followed by the addition of FAAH plasmid DNA ([…]) (OriGene Cat. No. TC119221, Genbank Accession No. NM_001441.1, 0.67 ug/uL) and a further incubation of 15 minutes at room temperature. The resulting solution was added into one dish of 30-40% confluent COS-7 cells in a drop-wise manner. The COS-7 cell dish was subsequently incubated for 48 hours. The cells were then harvested.
Media was aspirated from the dishes and the cells rinsed with 10 mL PBS. The PBS was removed and 3 mL of PBS added to the dish. The dish was scraped to resuspend the cells, and the subsequent cell suspension collected into a 15 mL conical tube. The cells were pelleted by centrifugation at 1200 rpm for 5 minutes in a bench top centrifuge. PBS was removed and the cell pellet snap frozen in liquid nitrogen and stored at −80° C.
COS-7 Cells—FAAH Purification: • (1) Fractionation: Frozen cell pellets from transient transfections were thawed on ice and resuspended in 12.5 mM Hepes pH 8.0, 100 mM NaCl, 1 mM EDTA (10 mL/0.2 g cell pellet). The pellets were dounce homogenized and then sonicated to produce cell extract. The cell extract was subsequently centrifuged at 1000 g to remove cellular debris. The pellet was discarded and the supernatant centrifuged at 13,000 g for 20 minutes. The pellet contained membrane bound FAAH. The supernatant was discarded and the pellet resolubilized. • (2) Re-solubilization: The fraction of interest, (13,000 g, membrane fraction) was re-suspended in 2.3 mL re-suspension buffer (20 mM Hepes pH 7.8, 10% v/v Glycerol, 1 mM EDTA, 1% Triton X-100) and the sample incubated on ice for 1 hour and then centrifuged to remove any particulate matter. The supernatant containing solubilized human FAAH was aliquoted and snap frozen in liquid nitrogen and stored at −80° C. until use. • (3) Characterization: Protein Concentration determined by Bradford assay. • SDS gel and Western blot to confirm presence of FAAH • FAAH activity assay • Km determination—96-well assay • Linear dependence—96-well assay • Standard compound Ki determination—384-well assay
Rat FAAH biochemical assays were carried out in a 96 well flat bottom black non-treated polystyrene plates (Corning Costar Catalogue #3915). FAAH reaction buffer: 50 mM Hepes (pH 7.5), 1 mM EDTA, 0.2% Triton X-100. FAAH substrate-AMC Arachidonoyl Amide (Cayman Chemicals Company, Catalog #10005098). The reaction was read in an Envision microtiter plate reader [Excitation filter 355 nm (40 nm bandpass); Emission filter 460 nm (25 nm bandpass)]. The raw fluorescence was plotted on the y axis and the inhibitor concentration on the x axis to give a dose response inhibition curve. The data was fitted to a single site competitive inhibition equation, fixing the Km for the rat and human enzyme to 12 μM and 9 μM respectively.
The principle of this assay was the hydrolysis of AMC-Arichodonoyl, a fluorescent analogue of Anandamide, which results in the formation of Arachidonic acid and AMC. The formation of AMC results in an increase in fluorescence (see, for example, Manjunath et al., Analytical Biochemistry (2005) 343:143-151; and Wang et al., Biomolecular Screening (2006) 1-9). […]

SMILES | Ki [nM]
Cc1c(CC(=O)N2CC=C(B(O)O)CC2)sc2ccccc12 [Example 6] | 10 to 100
O=C(OCc1ccccc1)N1CCC(B(O)O)CC1 [Example 9] | 10 to 100
CC(C)(C)OC(=O)N1CC=C(B(O)O)CC1 [Example 1] | 100 to 1000
O=C(CNCc1ccccc1)N1CCC(B(O)O)CC1 [Example 14] | > 1000
Cc1c(CN2CCC(B(O)O)CC2)sc2ccccc12 [Example 18] | 10 to 100
O=C(c1ccc2ccccc2n1)N1CCC(B(O)O)CC1 [Example 13] | 100 to 1000
O=C(NCc1ccccc1)N1CC=C(B(O)O)CC1 [Example 7] | 10 to 100
O=C(c1ccc(Cl)cc1)N1CC=C(B(O)O)CC1 [Example 4] | 10 to 100
Cc1c(C(=O)N2CC=C(B(O)O)CC2)sc2ccccc12 [Example 5] | 10 to 100
O=C([C@H]1CCCN1)N1CCC(B(O)O)CC1 [Example 15] | > 1000
O=C(c1cnc2ccccc2c1)N1CCC(B(O)O)CC1 [Example 12] | 100 to 1000
O=C(OCc1ccccc1)N1CC=C(B(O)O)CC1 [Example 2] | 10 to 100
O=C(c1ccc(Cl)cc1)N1CCC(B(O)O)CC1 [Example 11] | 100 to 1000
CC(=O)N1CC=C(B(O)O)CC1 [Example 3] | > 1000
CC(C)(C)OC(=O)N1CCC(B(O)O)CC1 [Example 8] | 10 to 100
OB(O)C1CCN(Cc2ccccc2)CC1 [Example 17] | > 1000
O=C(CCCCc1ccccc1)N1CCC(B(O)O)CC1 [Example 10] | 10 to 100
Cc1ccc(S(=O)(=O)N2CCC(B(O)O)CC2)cc1 [Example 16] | 100 to 1000
